Assay results from article PMC6387369, “Carbonic Anhydrase Inhibitors of Different Structures Dilate Pre-Contracted Porcine Retinal Arteries” (International Journal of Molecular Sciences, 2019).
Where two headings read alike, the source gives them in different places.

Tests used:
porcine retinal arteries = experiment: small vessel myography of wall tension in isolated retinal artery segments pre-contracted with U-46619; assay type: cell-based; conditions: for wall tension reached after dilation: final level (slower phase for compound 4); for EC50: Sus scrofa, best fit to concentration-response curves, arteries pre-contracted with 10^−6 M U-46619, read-out: mean EC50 of vasodilation; for vasodilation in a single representative experiment, percent of maximum contraction / mean dilation as percentage of the maximum contraction induced by U-46619: single dose of 10^−3 M; for vasodilation in a single representative experiment, percent of maximum contraction: pre-contracted with 10^−6 M U-46619; for mean dilation as percentage of the maximum contraction induced by U-46619: mean ± SEM; for peak wall tension after U-46619: 10^−6 M
hCA I [1] = target: T1, hCA I (Homo sapiens, UniProt P00915); experiment: stopped flow CO2 hydrase assay, hCA I; assay type: biochemical; conditions: mean from 3 assays, errors ± 5%–10%
T1 construct: made in house

hCA IX = target: T2, hCA IX (Homo sapiens, UniProt Q16790); experiment: stopped flow CO2 hydrase assay, hCA IX; assay type: biochemical; conditions: mean from 3 assays, errors ± 5%–10%
T2 construct: made in house

hCA II [2] = target: T3, hCA II (Homo sapiens, UniProt P00918); experiment: stopped flow CO2 hydrase assay, hCA II; assay type: biochemical; conditions: mean from 3 assays, errors ± 5%–10%
T3 construct: made in house

hCA XII = target: T4, hCA XII (Homo sapiens, UniProt O43570); experiment: stopped flow CO2 hydrase assay, hCA XII; assay type: biochemical
T4 construct: made in house

hCA IV = target: T5, hCA IV (Homo sapiens, UniProt P22748); experiment: stopped flow CO2 hydrase assay, hCA IV; assay type: biochemical; conditions: mean from 3 assays, errors ± 5%–10%
T5 construct: made in house

hCA I [3] = target: T1, hCA I; conditions: stopped flow; cited from earlier work
hCA II [4] = target: T3, hCA II; parameters: method as in PMID 16996620; conditions: stopped flow; cited from earlier work

T1 sequence (P00915 whole entry): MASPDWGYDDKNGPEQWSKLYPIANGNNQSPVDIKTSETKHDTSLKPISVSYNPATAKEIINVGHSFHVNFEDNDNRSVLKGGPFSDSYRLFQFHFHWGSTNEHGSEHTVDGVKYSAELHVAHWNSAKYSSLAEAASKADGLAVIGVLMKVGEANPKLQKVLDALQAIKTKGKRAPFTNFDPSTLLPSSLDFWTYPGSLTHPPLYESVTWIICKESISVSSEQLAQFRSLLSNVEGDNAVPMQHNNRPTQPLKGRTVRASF
T5 sequence (P22748 19-312): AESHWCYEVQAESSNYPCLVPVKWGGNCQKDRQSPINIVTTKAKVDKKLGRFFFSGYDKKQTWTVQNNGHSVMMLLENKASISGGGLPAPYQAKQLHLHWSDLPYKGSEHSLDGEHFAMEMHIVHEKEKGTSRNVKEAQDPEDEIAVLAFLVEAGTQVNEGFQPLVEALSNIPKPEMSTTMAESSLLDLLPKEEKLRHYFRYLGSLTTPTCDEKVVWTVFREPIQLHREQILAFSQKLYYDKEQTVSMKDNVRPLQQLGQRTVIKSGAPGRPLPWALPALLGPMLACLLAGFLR
T4 sequence (O43570 25-354): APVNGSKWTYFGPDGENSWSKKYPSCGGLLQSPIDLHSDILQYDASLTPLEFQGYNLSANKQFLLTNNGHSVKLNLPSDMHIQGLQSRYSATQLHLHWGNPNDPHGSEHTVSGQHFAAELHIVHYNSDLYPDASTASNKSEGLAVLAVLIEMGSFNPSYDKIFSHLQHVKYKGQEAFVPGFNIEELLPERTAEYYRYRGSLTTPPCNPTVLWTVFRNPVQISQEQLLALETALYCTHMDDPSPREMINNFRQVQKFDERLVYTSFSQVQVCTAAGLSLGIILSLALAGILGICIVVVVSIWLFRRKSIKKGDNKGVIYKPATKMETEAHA

Compound: C#CCOc1ccc2oc(=O)ccc2c1 [Compound 4]
- wall tension after initial very fast phase of dilation (porcine retinal arteries; 10^−3 M, one vessel, peak constriction 1.63 mN/mm (Figure 3B)): about 0.66 mN/mm
- wall tension reached after dilation (porcine retinal arteries; 10^−3 M, one vessel): about 0.36 mN/mm
- EC50 (porcine retinal arteries): 134 µM
- vasodilation in a single representative experiment, percent of maximum contraction (porcine retinal arteries; one vessel): 101%
- mean dilation as percentage of the maximum contraction induced by U-46619 (porcine retinal arteries): 98.8% ± 6.1%

Compound: C#CCN(CC#C)CCc1ccc(S(N)(=O)=O)cc1 [Compound 3]
- Ki (hCA I [1]): 4.01 µM
- EC50 (porcine retinal arteries): 188 µM
- vasodilation in a single representative experiment, percent of maximum contraction (porcine retinal arteries; one vessel): 91%
- mean dilation as percentage of the maximum contraction induced by U-46619 (porcine retinal arteries): 102.2% ± 3.7%
- Ki (hCA IX): 0.0557 µM
- Ki (hCA II [2]): 0.0058 µM

Compound: C#CCNc1ccc2c(C)cc(=O)oc2c1 [Compound 6]
- Ki (hCA I [1]): > 10 µM
- Ki (hCA XII; mean from 3 assays, errors ± 5%–10%): 0.0445 µM
- EC50 (porcine retinal arteries): 101 µM
- vasodilation in a single representative experiment, percent of maximum contraction (porcine retinal arteries; one vessel): 96.8%
- mean dilation as percentage of the maximum contraction induced by U-46619 (porcine retinal arteries): 99.5% ± 1.2%
- Ki (hCA IX): 0.474 µM
- Ki (hCA II [2]): > 10 µM

Compound: C#CCOc1ccc2ccc(=O)oc2c1 [Compound 5]
- Ki (hCA IV): 0.0764 µM
- Ki (hCA I [3]): > 10 µM
- Ki (hCA II [4]): > 10 µM
- times less effective than 4 against hCA XII (hCA XII; ratio of KI values versus compound 4): 12.9 times
- wall tension reached after dilation (porcine retinal arteries; 10^−3 M, one vessel): 0.77 mN/mm
- EC50 (porcine retinal arteries): 4.12 µM
- vasodilation in a single representative experiment, percent of maximum contraction (porcine retinal arteries; one vessel): 140%
- mean dilation as percentage of the maximum contraction induced by U-46619 (porcine retinal arteries): 116.5% ± 1.7%

Compound: CCCCC[C@H](O)/C=C/[C@@H]1[C@@H](C/C=C\CCCC(=O)O)[C@H]2CO[C@@H]1C2 [Compound U-46619, 9,11-dideoxy-9 α,11α methanoepoxy prostaglandin F2α, reference compound]
- peak wall tension after U-46619 (porcine retinal arteries; Figure 2A, baseline 0.4 mN/mm): about 1.75 mN/mm
- peak wall tension after U-46619 (porcine retinal arteries; Figure 3A, baseline 0.6 mN/mm): 2.4 mN/mm
- peak wall tension after U-46619 (porcine retinal arteries; Figure 3B, baseline about 0.38 mN/mm): 1.63 mN/mm
- peak wall tension after U-46619 (porcine retinal arteries; Figure 4A, baseline 1.54 mN/mm): 3.38 mN/mm
- peak wall tension after U-46619 (porcine retinal arteries; Figure 4B, baseline 0.95 mN/mm): 2.21 mN/mm

Compound: NS(=O)(=O)c1nnc(NS(=O)(=O)c2ccccc2)s1 [Compound 1, Benzolamide, reference compound]
- Ki (hCA IV): 0.012 µM
- final dilation when added after DZA dilation had reached a steady level (porcine retinal arteries; 10^−3 M BZA added on top of 10^−3 M DZA, one vessel (Figure 2B)): 100%
- EC50 (porcine retinal arteries): 84.3 µM
- vasodilation in a single representative experiment, percent of maximum contraction (porcine retinal arteries; one vessel): almost complete inhibition
- mean dilation as percentage of the maximum contraction induced by U-46619 (porcine retinal arteries): 78.4% ± 8.5%

Compound: CCN[C@H]1C[C@H](C)S(=O)(=O)c2sc(S(N)(=O)=O)cc21 [Compound 2, Dorzolamide, reference compound]
- vasodilation in a single representative experiment, percent of maximum contraction (porcine retinal arteries; one vessel): 33%
- mean dilation as percentage of the maximum contraction induced by U-46619 (porcine retinal arteries): 69.7% ± 5.7%
